Assay results published in patent US20260022142A1, “MACROCYCLIC IMMUNOMODULATORS” (Bristol-Myers Squibb Company, priority 2022, published 2026).
pIC50: −log10 of the molar value. Bridge positions count the residues as written; N and C are the ends. Square brackets hold non-standard residues; d marks the D form. Peptide text beside a SMILES is read from it. * marks the point of attachment. ξ: configuration not given here. Phe(4-CH2CH2COOH) = N[C@@H](Cc1ccc(CCC(=O)O)cc1)C(=O)O; Bip = N[C@@H](Cc1ccc(-c2ccccc2)cc1)C(=O)O; Phe(3-Me) = Cc1cccc(C[C@H](N)C(=O)O)c1; hArg = N=C(N)NCCCC[C@H](N)C(=O)O; Cha = N[C@@H](CC1CCCCC1)C(=O)O; Cit = NC(=O)NCCC[C@H](N)C(=O)O; Thr(3ξ) = CC(O)[C@H](N)C(=O)O; Carboxymethyl = O=C(O)C*; Orn = NCCC[C@H](N)C(=O)O; Aun = NCCCCCCCCCCC(=O)O; Dab = NCC[C@H](N)C(=O)O; AEEA = NCCOCCOCC(=O)O

molecular target: T1, PD-1/PD-L1 interaction (PE-labeled human PD-L1-Ig binding to Jurkat cell line over-expressing human PD-1) (Homo sapiens, UniProt Q15116); assay: Jurkat-PD-1 Cell Binding High-Content Screening Assay (CBA); type: cell-based; details: Jurkat cell line over-expressing human PD-1; PE-labeled PD-L1-Ig 20 nM final; read-out: Jurkat hPD1-PDL1 IC50
T1 construct: expressed in transfected cells; host or cells: Jurkat
T1 sequence (Q15116 25-288): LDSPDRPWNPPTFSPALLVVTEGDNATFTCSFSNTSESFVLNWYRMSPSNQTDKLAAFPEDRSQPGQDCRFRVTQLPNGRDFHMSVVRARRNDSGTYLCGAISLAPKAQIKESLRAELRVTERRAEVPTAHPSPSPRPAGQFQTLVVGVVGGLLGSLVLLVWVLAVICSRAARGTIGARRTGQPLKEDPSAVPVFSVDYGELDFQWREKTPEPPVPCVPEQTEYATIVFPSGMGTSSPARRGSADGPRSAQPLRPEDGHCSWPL
In short: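 Read-out is high-content imaging of cell-bound phycoerythrin-tagged PD-L1-Ig on fixed, Hoechst-counterstained Jurkat cells that over-express human PD-1. Compound exposure lasts 2 h at 37° C before the labeled ligand (20 nM final) is added for a further hour.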

Row | SMILES | pIC50
1 | Cc1cccc(C[C@@H]2NC(=O)[C@H](CC(=O)O)NC(=O)[C@H](Cc3ccc(OCC(=O)O)cc3)NC(=O)[C@H](CCN)NC(=O)CSC[C@@H](C(=O)N[C@@H](CCN)C(=O)NCCCCCCCCCCC(=O)O)NC(=O)[C@H](CO)NC(=O)[C@H](CCCCN)NC(=O)[C@H](CC3CCCCC3)NC(=O)[C@H](CCN)NC(=O)[C@@H](CC(C)C)NC(=O)[C@H](CCCN)NC(=O)[C@H](Cc3ccc(OCC(=O)O)cc3)NC(=O)[C@H](Cc3ccc(-c4ccccc4)cc3)NC(=O)[C@H](Cc3ccc(OCC(=O)O)cc3)NC2=O)c1 [Compound 3631] ({CH2CO}-[Dab]Y(Carboxymethyl)D[Phe(3-Me)]Y(Carboxymethyl)[Bip]Y(Carboxymethyl)[Orn][dL][Dab][Cha]KSC[Dab][Aun]-OH; thioether N-14) | 7.80
2 | Cc1cccc(C[C@@H]2NC(=O)[C@H](CC(=O)O)NC(=O)[C@H](Cc3ccc(OCC(=O)O)cc3)NC(=O)[C@H](C(C)O)NC(=O)CSC[C@@H](C(=O)N[C@@H](CCN)C(=O)NCCCCCCCCCCC(=O)O)NC(=O)[C@H](C(C)O)NC(=O)[C@H](C(C)C)NC(=O)[C@H](CC3CCCCC3)NC(=O)[C@H](CCN)NC(=O)[C@@H](CC(C)C)NC(=O)[C@H](CCCNC(N)=O)NC(=O)[C@H](Cc3ccc(OCC(=O)O)cc3)NC(=O)[C@H](Cc3ccc(-c4ccccc4)cc3)NC(=O)[C@H](Cc3ccc(OCC(=O)O)cc3)NC2=O)c1 (stereo partly drawn) [Compound 3487] ({CH2CO}-[Thr(3ξ)]Y(Carboxymethyl)D[Phe(3-Me)]Y(Carboxymethyl)[Bip]Y(Carboxymethyl)[Cit][dL][Dab][Cha]V[Thr(3ξ)]C[Dab][Aun]-OH; thioether N-14) | 7.51
3 | Cc1cccc(C[C@@H]2NC(=O)[C@H](CC(=O)O)NC(=O)[C@H](Cc3ccc(OCC(=O)O)cc3)NC(=O)[C@H](CCCNC(=N)N)NC(=O)CSC[C@@H](C(=O)N[C@@H](CCN)C(=O)NCCCCCCCCCCC(=O)O)NC(=O)[C@H](CCC(=O)O)NC(=O)[C@H](C(C)C)NC(=O)[C@H](CC3CCCCC3)NC(=O)[C@H](CCN)NC(=O)[C@@H](CC(C)C)NC(=O)[C@H](CCCN)NC(=O)[C@H](Cc3ccc(O)cc3)NC(=O)[C@H](Cc3ccc(-c4ccccc4)cc3)NC(=O)[C@H](CC(C)C)NC2=O)c1 [Compound 3342] ({CH2CO}-RY(Carboxymethyl)D[Phe(3-Me)]L[Bip]Y[Orn][dL][Dab][Cha]VEC[Dab][Aun]-OH; thioether N-14) | 7.42

These reach a higher pIC50. Values come first.

Row | pIC50 | SMILES
4 | 7.87 | CC(C)C[C@H]1NC(=O)[C@H](CCCN)NC(=O)[C@H](C(C)C)NC(=O)[C@H](Cc2ccc(-c3ccccc3)cc2)NC(=O)[C@H](C(C)C)NC(=O)[C@H](Cc2c[nH]c3ccccc23)NC(=O)[C@H](CC(=O)O)NC(=O)[C@H](Cc2ccc(OCC(=O)O)cc2)NC(=O)[C@H](CCCCNC(=N)N)NC(=O)CSC[C@@H](C(=O)N[C@@H](CCN)C(=O)NCCOCCOCC(=O)NCCCCCCCCCCC(=O)O)NC(=O)[C@H](CCCNC(N)=O)NC(=O)[C@H](C(C)C)NC(=O)[C@H](CC2CCCCC2)NC(=O)[C@H](CC(N)=O)NC1=O [Compound 3213] ({CH2CO}-[hArg]Y(Carboxymethyl)DWV[Bip]V[Orn][dL]N[Cha]V[Cit]C[Dab][AEEA][Aun]-OH; thioether N-14)
5 | 8.24 | Cc1cccc(C[C@@H]2NC(=O)[C@H](CC(=O)O)NC(=O)[C@H](Cc3ccc(OCC(=O)O)cc3)NC(=O)[C@H](CCCNC(=N)N)NC(=O)CSC[C@@H](C(=O)N[C@@H](CCN)C(=O)NCCCCCCCCCCC(=O)O)NC(=O)[C@H](CCC(N)=O)NC(=O)[C@H](C(C)C)NC(=O)[C@H](CC3CCCCC3)NC(=O)[C@H](CCN)NC(=O)[C@@H](CC(C)C)NC(=O)[C@H](CCCN)NC(=O)[C@H](Cc3ccc(O)cc3)NC(=O)[C@H](Cc3ccc(-c4ccccc4)cc3)NC(=O)[C@H](Cc3ccc(CCC(=O)O)cc3)NC2=O)c1 [Compound 2131] ({CH2CO}-RY(Carboxymethyl)D[Phe(3-Me)][Phe(4-CH2CH2COOH)][Bip]Y[Orn][dL][Dab][Cha]VQC[Dab][Aun]-OH; thioether N-14)
